Patent publication US20230263459A1, “DEVICE AND METHOD FOR PREVENTING SUDDEN DEATH AND PROTECTING OXYGEN STATUS DURING SEIZURE ACTIVITY” (priority 2020, published 2023)
Entries after “also recorded” stand apart in the source; their conditions may differ. Where a name gives a salt, the structure may show the parent alone. Read-outs that look alike come from different tables or passages of the source.

How the values were obtained:
[1] = tested on: audiogenic seizure prone mice; conditions: cited from earlier work
[2] = tested on: rat model of complete airway occlusion; conditions: for time to respiratory arrest (mean): air control 53.6; for number of breath attempts during occlusion: FIG. 7D, hydrochloride
Procedure: Adult male Sprague Dawley rats (AGE median=63, mean=88 days; WEIGHT median=306, mean=329 grams; Envigo Chicago, Ill.) were housed in AAALAC-accredited facilities and maintained on a 12 hour light:dark cycle with a temperature of 23° C. and humidity of 55%, monitored daily, and had unrestricted access to water and food. Urethane (1.5 g/kg ip) was used for anesthesia in all animals.
ECG RECORDINGS—Limb-lead ECG was recorded using copper strips coated with conductive gel wrapped around both forelimbs and the base of the tail. Signals were amplified and filtered to pass 1 Hz to 1 kHz (Model 1800 AC amplifier with headstages; A-M Systems, Sequim, Wash.) and digitized at 2 kHz (Microl401 controlled by Spike 2 software; Cambridge Electronic Design, Cambridge, UK). Rhythm was assessed by reviewing P waves and associated QRS complexes for variations in wave shape, beat-to-beat intervals, and atrial-ventricular coupling.
The raw pulsatile waveform of the pulse oximeter was digitized (2 kHz) with other signals.
INSPIRATORY AIRWAY PRESSURES—A pressure transducer (CyQ, Columbus Instruments, Columbus, Ohio) was connected to the sidearm of a T-shaped tracheal tube (see infra). Inspiratory pressures during complete airway occlusion were measured relative to those observed during baseline breathing. Signals were digitized along with other signals recorded at the same time.
TRACHEAL IMPLANTS—A T-shaped tracheal tube was placed through an incision between cartilaginous rings of the trachea after the trachea was exposed in the neck. The distal arm was “sealed” in the trachea with suture around the trachea, compressing it against the outside wall of the implant.
CONTROLLED AIRWAY OCCLUSION—Obstructive apnea was produced with controlled airway occlusion. The exterior arm in the straight path with the implanted arm served breathing or could be occluded. A pressure transducer on the tracheal tube sidearm recorded forces developed during either normal breathing with the tracheal tube open to the atmosphere or during complete closure of the open port.
Injected volumes were 12.5 ml/kg and averaged 4.25 f 1.00 ml/animal (mean, standard deviation). Fluoxetine hydrochloride (cat #1279804) was obtained from Sigma Aldrich Inc. (St. Louis, Mo.).
Gas was delivered at ˜4 liters/min. In all animals, the occlusion was left in place until 10 seconds after the point of respiratory arrest, which was defined as the time of the peak of the last breath attempt.

[3] = tested on: audiogenic seizure-prone mice; conditions: oxygen, FIG. 3
Text: In audiogenic seizure-prone mice, seizures are stereotyped and consist of a running phase, a clonic phase, and a tonic phase that included hindlimb extension.

[4] = fluoxetine 25 mg/kg IP vs saline

O=O [oxygen]
protection from normally fatal audiogenic seizures ([1]; DBA/2 mice, seizures in an oxygen atmosphere (Venit 2004; Willott 1976)): protected
survival of animals ([1]; oxygen treatment (Venit 2004; Willott 1976)): 100%
increase in the time to respiratory arrest ([2]; 50% oxygen/50% air 30 seconds prior to occlusion vs air): 19%
time to respiratory arrest (mean) ([2]; 50% oxygen/50% air for 30 seconds prior to airway occlusion, n=7): 63.9 s
number of breath attempts ([2]; 50% oxygen/50% air for 30 seconds vs air): significantly increased
delay in desaturation onset ([2]; animals breathing oxygen versus air, FIG. 1C): ~40 s
increase in the time to respiratory arrest ([2]; oxygen 30 seconds prior to occlusion vs air): 52%
increase in the time to respiratory arrest ([2]; oxygen 5 minutes prior to occlusion vs air): 65%
minimum pulse oximetry level ([2]; oxygen animals, n=12, mean, standard deviation): 37%±11
time to respiratory arrest (mean) ([2]; oxygen atmosphere for 5 minutes prior to airway occlusion): 88.4 s
time to respiratory arrest relative to room air ([2]; oxygen enriched atmosphere vs room air, FIG. 1A): nearly doubled; also recorded: nearly twice as long
total number of breath attempts during complete airway closure ([2]; oxygen prior to occlusion vs air, FIG. 1D): significantly greater
time to respiratory arrest (mean) ([2]; oxygen stream for only 30 seconds prior to airway occlusion (brief O2), n=10): 81.6 s
duration of sustained high level of oxygen saturation before decline ([2]; oxygen-breathing rat, pulse oximetry, FIGS. 2A-2B): about 30 seconds
time of last breath attempt (respiratory arrest) after occlusion onset ([2]; single animal, FIG. 2A, oxygen for five minutes before occlusion, air animal 53): 100 s
onset of ST segment elevation, bradycardia and premature ventricular contractions post-occlusion ([2]; single animal, FIG. 2A, oxygen for five minutes before occlusion, air animal about 40): about 80 seconds
time in tonic hindlimb extension phase [3]: unchanged
time to respiratory arrest [3]: prolonged
total seizure time [3]: unchanged

CNCCC(Oc1ccc(C(F)(F)F)cc1)c1ccccc1 (centres unmarked) [fluoxetine, Fluoxetine hydrochloride]
protection against death ([1]; multiple strains of audiogenic seizure prone mice (Faingold 2011, 2014; Zeng 2015)): protect against death
attempts needed to effect resuscitation after respiratory arrest ([2]; SSRI group vs saline, bolus gas delivery): required more attempts on average
increase in the time to respiratory arrest ([2]; fluoxetine 25 mg/kg IP one hour post-injection vs saline): 28%
rate of desaturation during occlusion [2, 4]: did not significantly alter
inspiratory forces generated during breath attempts while occluded ([2]; fluoxetine 25 mg/kg IP vs saline, FIG. 7B): no apparent differences
number of breath attempts during occlusion [2, 4]: no difference
number of breath attempts during occlusion ([2]; fluoxetine 25 mg/kg IP vs saline, listed as Fluoxetine): nearly equivalent
respiratory rate ([2]; fluoxetine 25 mg/kg IP vs saline, FIGS. 7E, 7F): significantly slowed
time to respiratory arrest (average) ([2]; fluoxetine 25 mg/kg IP, 60 min before occlusion, n=8, saline control 49.8/49.9): 63.8 s
minimum oxygen saturation ([2]; fluoxetine 25 mg/kg IP, saline group 37%, not statistically significant): 34%
